“Also recorded” adds a separate entry of the source. Structures can show the parent of a compound that is named as a salt.
Columns and labels:
μ opioid receptor (MOR) = molecular target: T1, μ opioid receptor (MOR) (Mus musculus, UniProt P42866); assay: Competitive radioligand binding assay, MOR
T1 construct: expressed in transfected cells; host or cells: CHO (mMOR-CHO), membrane preparation
Method: (§1) The competition binding assay was performed using monoclonal mouse opioid receptors expressed in CHO cell lines (monoclonal human δ opioid receptor was used for the DOR assay).
(§2) The bound radioligand was separated using a Brandel harvester. Specific binding to the MOR, KOR, and DOR was calculated by subtracting the binding observed in the presence of 5 μM naltrexone, U50488, and SNC80, respectively, from the binding in their absence. Relative affinity values (IC50) were determined by fitting displacement binding inhibition data to a nonlinear regression model using GraphPad Prism 8.0 (GraphPad Software, San Diego, CA). The % inhibition was calculated using the formula: % inhibition = 100% - [(binding with the tested compound - nonspecific binding)/specific binding] × 100%. The IC50 values were converted to Ki values using the Cheng-Prusoff equation: Ki = IC50/ [1 + ([L*]/KD)], where [L*] is the concentration of the radioligand and KD is the KD of the radioligand.[68]

δ opioid receptor (DOR) = molecular target: T2, δ opioid receptor (DOR) (Homo sapiens, UniProt P41143); assay: Competitive radioligand binding assay, DOR; details: for Selectivity δ/μ: ratio of Ki values
T2 construct: expressed in transfected cells; host or cells: CHO (hDOR-CHO), membrane preparation
Method: as §1, §2

κ opioid receptor (KOR) = molecular target: T3, κ opioid receptor (KOR) (Mus musculus, UniProt P33534); assay: Competitive radioligand binding assay, KOR; details: for Selectivity κ/μ: ratio of Ki values
T3 construct: expressed in transfected cells; host or cells: CHO (mKOR-CHO), membrane preparation
Method: as §1, §2

MOR [1] = molecular target: T4, MOR (Mus musculus, UniProt P42866); assay: MOR [35S]GTPγS functional assay; format: biochemical; details: for Emax: read-out: MOR [35S]GTPγS Binding %Emax of DAMGO, relative to 3 μM DAMGO, mean ± SEM
T4 construct: expressed in transfected cells; host or cells: CHO (MOR-CHO), membrane preparation
Method: (§3) The [^35S]GTPγS functional assay was used to assess the efficacy of compounds at the MOR, KOR, and DOR. In this assay, 10 μg of MOR-CHO/KOR-CHO/DOR-CHO membrane protein was incubated in 500 μL of TME with 100 mM NaCl, 20 μM GDP, 0.1 nM [^35S]GTPγS, and varying concentrations of the compound for 1.5 h in a 30 °C water bath. Protein concentration was adjusted using the Bradford protein assay. […] After incubation, bound radioactivity was separated by filtration through GF/B glass fiber filters and measured by liquid scintillation counting. All assays were performed in duplicate and repeated at least three times. Net stimulated [35S]GTPγS binding was calculated as agonist-stimulated minus basal binding.

Swiss Webster mice = assay: Warm-water tail immersion assay, antagonism of morphine-induced antinociception; details: for Antagonism of morphine's antinociception, in words: single dose of 10 mg/kg s.c. in the presence of morphine (10 mg/kg), n = 6; for AD50 (95% CL) for counteracting morphine-induced antinociception: mice, s.c., given 5 min before morphine
KOR = molecular target: T5, KOR (Mus musculus, UniProt P33534); assay: KOR [35S]GTPγS functional assay; format: biochemical
T5 construct: expressed in transfected cells; host or cells: CHO (KOR-CHO), membrane preparation
Method: as §3

DOR = molecular target: T6, DOR (Homo sapiens, UniProt P41143); assay: DOR [35S]GTPγS functional assay; format: biochemical
T6 construct: expressed in transfected cells; host or cells: CHO (DOR-CHO), membrane preparation
Method: as §3

MOR [2] = molecular target: T4, MOR; assay: MOR calcium flux assay in Gαqi5-transfected mMOR-CHO cells; format: cell-based

Row | Structure (SMILES) | Ki (μ opioid receptor (MOR)) | Ki (δ opioid receptor (DOR)) | Selectivity δ/μ (δ opioid receptor (DOR)) | Ki (κ opioid receptor (KOR)) | Selectivity κ/μ (κ opioid receptor (KOR)) | EC50 (MOR [1]) | Emax (MOR [1]) | Antagonism of morphine's antinociception, in words (Swiss Webster mice) | EC50 (KOR) | Emax (KOR; relative to 3 μM U50488H, mean ± SEM, read-out: KOR [35S]GTPγS binding % Emax of U50488H) | EC50 (DOR) | Emax (DOR; relative to 3 μM SNC80, mean ± SEM, read-out: DOR [35S]GTPγS binding % Emax of SNC80) | IC50 (MOR [2]) | Agonistic activity in increasing intracellular calcium, in words (MOR [2]; compared to full MOR agonist DAMGO) | AD50 (95% CL) for counteracting morphine-induced antinociception (Swiss Webster mice)
1 | O=C(Cc1nccs1)N[C@@H]1CC[C@@]2(O)[C@H]3Cc4ccc(O)c5c4[C@@]2(CCN3CC2CC2)[C@H]1O5 [Compound 15, 17-Cyclopropylmethyl-3,14β-dihydroxy-4,5α-epoxy-6β-(2′-thiazolylacetamido)-morphinan hydrochloride] | 0.35 ± 0.04 nM | 26.4 ± 2.65 nM | 76 | 1.89 ± 0.77 nM | 5 | 0.78 ± 0.18 nM | 11 ± 0.43% | – | – | – | – | – | – | – | –
2 | O=C(Cc1cncs1)N[C@H]1CC[C@@]2(O)[C@H]3Cc4ccc(O)c5c4[C@@]2(CCN3CC2CC2)[C@H]1O5 [Compound 4, 17-Cyclopropylmethyl-3,14β-dihydroxy-4,5α-epoxy-6α-(5′-thiazolylacetamido)-morphinan hydrochloride] | 0.57 ± 0.02 nM | 8.5 ± 0.56 nM | 15 | 2.08 ± 0.39 nM | 4 | 5.87 ± 1.26 nM | 17 ± 0.89% | – | – | – | – | – | – | – | –
3 | O=C(CCc1cncs1)N[C@@H]1CC[C@@]2(O)[C@H]3Cc4ccc(O)c5c4[C@@]2(CCN3CC2CC2)[C@H]1O5 [Compound 13, 17-Cyclopropylmethyl-3,14β-dihydroxy-4,5α-epoxy-6β-[(3′-(thiazolyl-5′′-yl)propan-amido]morphinan hydrochloride] | 0.49 ± 0.07 nM | 31.5 ± 2.78 nM | 65 | 1.2 ± 0.25 nM | 2 | 1.39 ± 0.36 nM | 10.5 ± 0.92% | – | – | – | – | – | – | – | –
4 | O=C(CCc1cncs1)N[C@H]1CC[C@@]2(O)[C@H]3Cc4ccc(O)c5c4[C@@]2(CCN3CC2CC2)[C@H]1O5 [Compound 5, 17-Cyclopropylmethyl-3,14β-dihydroxy-4,5α-epoxy-6α-[(3′-(thiazolyl-5′′-yl)propan-amido]morphinan hydrochloride] | 0.71 ± 0.08 nM | 11.6 ± 1.24 nM | 16 | 2.04 ± 0.38 nM | 3 | 2.76 ± 0.58 nM | 10.7 ± 1.02% | – | – | – | – | – | – | – | –
5 | O=C(Cc1nccs1)N[C@H]1CC[C@@]2(O)[C@H]3Cc4ccc(O)c5c4[C@@]2(CCN3CC2CC2)[C@H]1O5 [Compound 7, 17-Cyclopropylmethyl-3,14β-dihydroxy-4,5α-epoxy-6α-(2′-thiazolylacetamido)-morphinan hydrochloride] | 0.65 ± 0.05 nM | 1.3 ± 0.08 nM | 2 | 2.26 ± 0.5 nM | 3 | 3.87 ± 1.29 nM | 10.2 ± 0.61% | significantly antagonized | – | – | – | – | – | – | –
6 | O=C(Cc1cncs1)N[C@@H]1CC[C@@]2(O)[C@H]3Cc4ccc(O)c5c4[C@@]2(CCN3CC2CC2)[C@H]1O5 [Compound 12, 17-Cyclopropylmethyl-3,14β-dihydroxy-4,5α-epoxy-6β-(5′-thiazolylacetamido)-morphinan hydrochloride] | 0.39 ± 0.04 nM | 17.5 ± 1.91 nM | 44 | 0.89 ± 0.05 nM | 2 | 1.24 ± 0.25 nM | 13 ± 0.76% | – | – | – | – | – | – | – | –
7 | O=C(CCc1nccs1)N[C@H]1CC[C@@]2(O)[C@H]3Cc4ccc(O)c5c4[C@@]2(CCN3CC2CC2)[C@H]1O5 [Compound 8, 17-Cyclopropylmethyl-3,14β-dihydroxy-4,5α-epoxy-6α-[(3′-(thiazolyl-2′′-yl)propan-amido]morphinan hydrochloride] | 0.45 ± 0.06 nM | 1.18 ± 0.06 nM | 3 | 2 ± 0.42 nM | 4 | 3.4 ± 0.6 nM | 13.4 ± 0.41% | significantly antagonized | – | – | – | – | – | – | –
8 | O=C(N[C@H]1CC[C@@]2(O)[C@H]3Cc4ccc(O)c5c4[C@@]2(CCN3CC2CC2)[C@H]1O5)c1cncs1 [Compound 3, 17-Cyclopropylmethyl-3,14β-dihydroxy-4,5α-epoxy-6α-(5′-thiazolylcarboxamido)-morphinan hydrochloride] | 0.35 ± 0.02 nM | 16.8 ± 3.88 nM | 48 | 0.97 ± 0.11 nM | 3 | 2.77 ± 0.51 nM | 15.9 ± 1.84% | – | – | – | – | – | – | – | –
9 | O=C(Cc1ccns1)N[C@H]1CC[C@@]2(O)[C@H]3Cc4ccc(O)c5c4[C@@]2(CCN3CC2CC2)[C@H]1O5 [Compound 2, 17-Cyclopropylmethyl-3,14β-dihydroxy-4,5α-epoxy-6α-(5′-isothiazolylacetamido)-morphinan hydrochloride] | 0.55 ± 0.06 nM | 13.9 ± 1.62 nM | 25 | 1.49 ± 0.13 nM | 3 | 4.62 ± 0.44 nM | 18.2 ± 1.06% | – | – | – | – | – | – | – | –
10 | O=C(N[C@@H]1CC[C@@]2(O)[C@H]3Cc4ccc(O)c5c4[C@@]2(CCN3CC2CC2)[C@H]1O5)c1ccns1 [Compound 9, 17-Cyclopropylmethyl-3,14β-dihydroxy-4,5α-epoxy-6β-(5′-isothiazolylcarboxamido)-morphinan hydrochloride] | 0.32 ± 0.03 nM | 67.8 ± 7.17 nM | – | 1.22 ± 0.32 nM | 4 | 0.71 ± 0.14 nM | 9.66 ± 1.37% | significantly antagonized | 7.06 ± 0.18 nM | 49.9 ± 1.99% | 58.1 ± 10.3 nM | 44.4 ± 4.15% | 6.53 ± 2.28 nM | no apparent agonism; also recorded: none of them showed any significant agonistic activity | 4.77 (3.59–6.34) mg/kg
11 | O=C(Cc1ccns1)N[C@@H]1CC[C@@]2(O)[C@H]3Cc4ccc(O)c5c4[C@@]2(CCN3CC2CC2)[C@H]1O5 [Compound 10, 17-Cyclopropylmethyl-3,14β-dihydroxy-4,5α-epoxy-6β-(5′-isothiazolylacetamido)-morphinan hydrochloride] | 0.59 ± 0.09 nM | 34 ± 4.18 nM | 58 | 1.14 ± 0.05 nM | 2 | 1.16 ± 0.15 nM | 9.32 ± 0.67% | significantly antagonized | – | – | – | – | – | – | 13.12 (2.34–73.39) mg/kg
12 | O=C(CCc1nccs1)N[C@@H]1CC[C@@]2(O)[C@H]3Cc4ccc(O)c5c4[C@@]2(CCN3CC2CC2)[C@H]1O5 [Compound 16, 17-Cyclopropylmethyl-3,14β-dihydroxy-4,5α-epoxy-6β-[(3′-(thiazolyl-2′′-yl)propan-amido]morphinan hydrochloride] | 0.35 ± 0.03 nM | 18.8 ± 3.26 nM | 54 | 0.67 ± 0.08 nM | 2 | 1.75 ± 0.46 nM | 12.1 ± 0.67% | – | – | – | – | – | – | – | –
13 | O=C(N[C@@H]1CC[C@@]2(O)[C@H]3Cc4ccc(O)c5c4[C@@]2(CCN3CC2CC2)[C@H]1O5)c1cncs1 [Compound 11, 17-Cyclopropylmethyl-3,14β-dihydroxy-4,5α-epoxy-6β-(5′-thiazolylcarboxamido)-morphinan hydrochloride] | 0.53 ± 0.04 nM | 77.9 ± 16.1 nM | 147 | 1.41 ± 0.24 nM | 3 | 1.58 ± 0.44 nM | 13.7 ± 1.32% | significantly antagonized | – | – | – | – | – | – | –

Reference: paper PMC11651181, “Discovery of 6α-Thiazolylcarboxamidonaltrexamine Derivative (NTZ) as a Potent and Central Nervous System Penetrant Opioid Receptor Modulator with Drug-like Properties for Potential Treatment of Opioid Use Disorder” (ACS Pharmacology & Translational Science, 2024)
